Reference: the NIST ThermoML archive (doi:10.1016/j.jct.2017.07.016)
Numbers after ± are expanded uncertainties.

Conditions: 308.15 K; 96.7 kPa; Liquid; Capillary tube (Ostwald / Ubbelohde) method

| Structure (SMILES) | viscosity |
| --- | --- |
| C[S+](C)[O-] [dimethyl sulfoxide] | 1.665 ± 0.25 mPa·s |
| CCCCCCn1cc[n+](C)c1.[Cl-] [1-hexyl-3-methylimidazolium chloride] | 3430.8 ± 560 mPa·s |
| CN(C)C=O [dimethylformamide] | 0.723 ± 0.11 mPa·s |
| CC(=O)N(C)C [N,N-dimethylethanamide] | 0.834 ± 0.12 mPa·s |

Same assay, conditions: 308.15 K; 96.7 kPa; Liquid; Vibrating tube method

| Structure (SMILES) | mass density |
| --- | --- |
| c1ccncc1 [pyridine] | 968.06 ± 1.9 kg/m3 |
| C[S+](C)[O-] [dimethyl sulfoxide] | 1085.28 ± 2.2 kg/m3 |
| CCCCCCn1cc[n+](C)c1.[Cl-] [1-hexyl-3-methylimidazolium chloride] | 1033.22 ± 2.2 kg/m3 |
| CN(C)C=O [dimethylformamide] | 934.41 ± 1.9 kg/m3 |
| CC(=O)N(C)C [N,N-dimethylethanamide] | 927.26 ± 2 kg/m3 |

Same assay, conditions: 313.15 K; 96.7 kPa; Liquid; Capillary tube (Ostwald / Ubbelohde) method

| Structure (SMILES) | viscosity |
| --- | --- |
| c1ccncc1 [pyridine] | 0.741 ± 0.11 mPa·s |
| C[S+](C)[O-] [dimethyl sulfoxide] | 1.529 ± 0.23 mPa·s |
| CCCCCCn1cc[n+](C)c1.[Cl-] [1-hexyl-3-methylimidazolium chloride] | 2146.1 ± 350 mPa·s |
| CN(C)C=O [dimethylformamide] | 0.685 ± 0.1 mPa·s |
| CC(=O)N(C)C [N,N-dimethylethanamide] | 0.785 ± 0.12 mPa·s |

Same assay, conditions: 313.15 K; 96.7 kPa; Liquid; Vibrating tube method

| Structure (SMILES) | mass density |
| --- | --- |
| c1ccncc1 [pyridine] | 963.02 ± 1.9 kg/m3 |
| C[S+](C)[O-] [dimethyl sulfoxide] | 1080.3 ± 2.2 kg/m3 |
| CCCCCCn1cc[n+](C)c1.[Cl-] [1-hexyl-3-methylimidazolium chloride] | 1030.38 ± 2.2 kg/m3 |
| CN(C)C=O [dimethylformamide] | 929.64 ± 1.9 kg/m3 |
| CC(=O)N(C)C [N,N-dimethylethanamide] | 922.66 ± 2 kg/m3 |

Same assay, conditions: 318.15 K; 96.7 kPa; Liquid; Capillary tube (Ostwald / Ubbelohde) method

| Structure (SMILES) | viscosity |
| --- | --- |
| c1ccncc1 [pyridine] | 0.697 ± 0.11 mPa·s |
| C[S+](C)[O-] [dimethyl sulfoxide] | 1.407 ± 0.21 mPa·s |
| CCCCCCn1cc[n+](C)c1.[Cl-] [1-hexyl-3-methylimidazolium chloride] | 1390.4 ± 220 mPa·s |
| CN(C)C=O [dimethylformamide] | 0.651 ± 0.098 mPa·s |
| CC(=O)N(C)C [N,N-dimethylethanamide] | 0.739 ± 0.11 mPa·s |

Same assay, conditions: 318.15 K; 96.7 kPa; Liquid; Vibrating tube method

| Structure (SMILES) | mass density |
| --- | --- |
| c1ccncc1 [pyridine] | 957.97 ± 1.9 kg/m3 |
| C[S+](C)[O-] [dimethyl sulfoxide] | 1075.31 ± 2.2 kg/m3 |
| CCCCCCn1cc[n+](C)c1.[Cl-] [1-hexyl-3-methylimidazolium chloride] | 1027.56 ± 2.2 kg/m3 |
| CN(C)C=O [dimethylformamide] | 924.86 ± 1.9 kg/m3 |
| CC(=O)N(C)C [N,N-dimethylethanamide] | 918.06 ± 2 kg/m3 |

Same assay, conditions: 323.15 K; 96.7 kPa; Liquid; Capillary tube (Ostwald / Ubbelohde) method

| Structure (SMILES) | viscosity |
| --- | --- |
| c1ccncc1 [pyridine] | 0.658 ± 0.099 mPa·s |
| C[S+](C)[O-] [dimethyl sulfoxide] | 1.304 ± 0.2 mPa·s |
| CCCCCCn1cc[n+](C)c1.[Cl-] [1-hexyl-3-methylimidazolium chloride] | 928.1 ± 150 mPa·s |
| CN(C)C=O [dimethylformamide] | 0.619 ± 0.093 mPa·s |
| CC(=O)N(C)C [N,N-dimethylethanamide] | 0.698 ± 0.11 mPa·s |

Same assay, conditions: 323.15 K; 96.7 kPa; Liquid; Vibrating tube method

| Structure (SMILES) | mass density |
| --- | --- |
| c1ccncc1 [pyridine] | 952.9 ± 1.9 kg/m3 |
| C[S+](C)[O-] [dimethyl sulfoxide] | 1070.32 ± 2.2 kg/m3 |
| CCCCCCn1cc[n+](C)c1.[Cl-] [1-hexyl-3-methylimidazolium chloride] | 1024.75 ± 2.2 kg/m3 |
| CN(C)C=O [dimethylformamide] | 920.07 ± 1.9 kg/m3 |
| CC(=O)N(C)C [N,N-dimethylethanamide] | 913.44 ± 1.9 kg/m3 |

Same assay, conditions: 328.15 K; 96.7 kPa; Liquid; Capillary tube (Ostwald / Ubbelohde) method

| Structure (SMILES) | viscosity |
| --- | --- |
| c1ccncc1 [pyridine] | 0.622 ± 0.093 mPa·s |
| C[S+](C)[O-] [dimethyl sulfoxide] | 1.211 ± 0.18 mPa·s |
| CCCCCCn1cc[n+](C)c1.[Cl-] [1-hexyl-3-methylimidazolium chloride] | 638.79 ± 100 mPa·s |
| CN(C)C=O [dimethylformamide] | 0.589 ± 0.088 mPa·s |
| CC(=O)N(C)C [N,N-dimethylethanamide] | 0.661 ± 0.099 mPa·s |

Same assay, conditions: 328.15 K; 96.7 kPa; Liquid; Vibrating tube method

| Structure (SMILES) | mass density |
| --- | --- |
| c1ccncc1 [pyridine] | 947.82 ± 1.9 kg/m3 |
| C[S+](C)[O-] [dimethyl sulfoxide] | 1065.33 ± 2.1 kg/m3 |
| CCCCCCn1cc[n+](C)c1.[Cl-] [1-hexyl-3-methylimidazolium chloride] | 1021.92 ± 2.2 kg/m3 |
| CN(C)C=O [dimethylformamide] | 915.26 ± 1.8 kg/m3 |
| CC(=O)N(C)C [N,N-dimethylethanamide] | 908.81 ± 1.9 kg/m3 |
